Test results as given in patent publication US11365193B2, “Oxadiazole compound and fungicide for agricultural and horticultural use” (Nippon Soda Co., Ltd., priority 2017, dated 2022).

Test system: wheat red rust pathogen (Puccinia recondita)
Assay: Test Example 1: wheat red rust disease control test (100 ppm)
Assay type: in vivo
Conditions: 100 ppm by mass sprayed on wheat young seedlings (Norin 61), inoculated after air-drying; blotch area ratio 12 days after inoculation
Procedure: 5 parts by, mass of an oxadiazole compound, 93.5 parts by mass of dimethylformamide, and 1.5 parts by mass of polyoxyethylene alkyl aryl ether were mixed and dissolved to obtain an emulsion (I) containing 5% by mass of the active ingradient.
The control value was calculated by the following formula. Control value (%)=100-{blotch area ratio in treated area/blotch area ratio in untreated area}×100
Water was added to the emulsion (I) such that the concentration of the oxadiazole compound became 100 ppm by mass, and then the oxadiazole compound was dissolved to obtain a pharmaceutical solution. Then, the pharmaceutical solution was sprayed on wheat young seedings (variety “Norin 61” at the first to second leaf stage) grown in nursery pots. After air-drying, the wheat young seedings sprayed with the pharmaceutical solution were inoculated with summer spores of wheat red rust pathogen (Puccinia recondita) by spraying the summer spores (in treated area).
As a control, wheat young seedings that were not sprayed with the pharmaceutical solution were inoculated in the same manner as mentioned above (in untreated area).
The wheat young seedings were placed under humid conditions at 20° C. for 1 day. […] After 12 days passed from inoculation, leaves of the wheat seedings were visually observed to measure the blotch area ratio, and the control value was calculated.
In the case of `C[S+]([O-])CCOc1cc(=O)n(Cc2ccc(-c3noc(C(F)(F)F)n3)cc2)cn1` (centres unmarked) [Compound 2-75], the Control value is reported as 2-75%.

Test system: not given
Assay: not given
Conditions: not given
For `O=c1ccccn1-c1ccc(-c2noc(C(F)(F)F)n2)cc1` [Compound 1-2], the melting point was 130 to 133 °C.
In the case of `O=c1c2ccccc2ncn1Cc1ccc(-c2noc(C(F)(F)F)n2)cc1` [Compound 1-3], the melting point is reported as 178 to 180 °C.
With `O=c1c2ccccc2ncn1-c1ccc(-c2noc(C(F)(F)F)n2)cc1` [Compound 1-4] the melting point was 233 to 235 °C.
Compound `O=c1cccnn1-c1ccc(-c2noc(C(F)(F)F)n2)cc1` [Compound 1-5] has a melting point of 97 to 100 °C.
Work on `O=c1cc2ccccc2cn1Cc1ccc(-c2noc(C(F)(F)F)n2)cc1` [Compound 1-6] yielded a melting point of 165 to 168 °C.
`Cc1ccn(-c2ccc(-c3noc(C(F)(F)F)n3)cc2)c(=O)c1` [Compound 1-8] gave a melting point of 151 to 154 °C.
In the case of `Cc1ccc(=O)n(-c2ccc(-c3noc(C(F)(F)F)n3)cc2)n1` [Compound 1-9], the melting point is reported as 78 to 83 °C.
For `O=c1c2ccccc2cnn1-c1ccc(-c2noc(C(F)(F)F)n2)cc1` [Compound 1-10], the melting point was 141 to 144 °C.
In the case of `O=c1c2ccccc2cnn1Cc1ccc(-c2noc(C(F)(F)F)n2)cc1` [Compound 1-11], the melting point is reported as 133 to 136 °C.
`O=c1cccnn1CC1(c2ccc(-c3noc(C(F)(F)F)n3)cc2)OCCO1` [Compound 1-14] gave a melting point of 105 to 107 °C.
Compound `O=C(Cn1ncccc1=O)c1ccc(-c2noc(C(F)(F)F)n2)cc1` [Compound 1-15] has a melting point of 122 to 125 °C.
`CSc1cnn(-c2ccc(-c3noc(C(F)(F)F)n3)cc2)c(=O)c1` [Compound 1-16] showed a melting point of 151 to 153 °C.
`C[S+]([O-])c1cnn(-c2ccc(-c3noc(C(F)(F)F)n3)cc2)c(=O)c1` (centres unmarked) [Compound 1-17] gave a melting point of 145 to 147 °C.
Work on `CS(=O)(=O)c1cnn(-c2ccc(-c3noc(C(F)(F)F)n3)cc2)c(=O)c1` [Compound 1-18] yielded a melting point of 186 to 188 °C.
In the case of `Cc1noc2cnn(Cc3ccc(-c4noc(C(F)(F)F)n4)cc3)c(=O)c12` [Compound 1-21], the melting point is reported as 158 to 160 °C.
Compound `Cc1nn(C)c2cnn(Cc3ccc(-c4noc(C(F)(F)F)n4)cc3)c(=O)c12` [Compound 1-22] has a melting point of 187 to 190 °C.
Compound `Cc1nc2c(cnn2C)c(=O)n1Cc1ccc(-c2noc(C(F)(F)F)n2)cc1` [Compound 1-23] has a melting point of 118 to 120 °C.
For `Cn1ncc2c(=O)n(Cc3ccc(-c4noc(C(F)(F)F)n4)cc3)cnc21` [Compound 1-24], the melting point was 225 to 228 °C.
`O=c1c2c(ncn1Cc1ccc(-c3noc(C(F)(F)F)n3)cc1)CCC2` [Compound 1-25] showed a melting point of 165 to 168 °C.
`O=c1c2c(ncn1Cc1ccc(-c3noc(C(F)(F)F)n3)cc1)CCCC2` [Compound 1-26] showed a melting point of 157 to 160 °C.
`O=C(C(=NOCC(F)(F)F)c1ccc(-c2noc(C(F)(F)F)n2)cc1)n1ncccc1=O` [Compound 1-29] gave a melting point of 82 to 98 °C.
Work on `Cc1nn(C)c2nc(C)n(Cc3ccc(-c4noc(C(F)(F)F)n4)cc3)c(=O)c12` [Compound 1-30] yielded a melting point of 163 to 166 °C.
In the case of `O=c1cc2c(nn1Cc1ccc(-c3noc(C(F)(F)F)n3)cc1)CCC2` [Compound 1-31], the melting point is reported as 94 to 97 °C.
Work on `O=c1c2c(cnn1Cc1ccc(-c3noc(C(F)(F)F)n3)cc1)OCCC2` [Compound 1-32] yielded a melting point of 87 to 89 °C.
With `O=c1cccnn1CCc1ccc(-c2noc(C(F)(F)F)n2)cc1` [Compound 1-33] the melting point was 74 to 80 °C.
Compound `Cc1nc2c(c(=O)n1Cc1ccc(-c3noc(C(F)(F)F)n3)cc1)CCCC2` [Compound 1-34] has a melting point of 132 to 135 °C.
Compound `O=c1cccnn1CC(O)c1ccc(-c2noc(C(F)(F)F)n2)cc1` (centres unmarked) [Compound 1-36] has a melting point of 119 to 121 °C.
Compound `CON=CCOc1ncn(Cc2ccc(-c3noc(C(F)(F)F)n3)cc2)c(=O)c1Cl` [Compound 1-37] has a melting point of 201 to 203 °C.
`CON=CCOc1cc(=O)n(Cc2ccc(-c3noc(C(F)(F)F)n3)cc2)cn1` [Compound 1-38] showed a melting point of 143 to 148 °C.
With `CCON=CCOc1cc(=O)n(Cc2ccc(-c3noc(C(F)(F)F)n3)cc2)cn1` [Compound 1-40] the melting point was 139 to 142 °C.
For `COCCON=CCOc1cc(=O)n(Cc2ccc(-c3noc(C(F)(F)F)n3)cc2)cn1` [Compound 1-41], the melting point was 94 to 96 °C.
Compound `O=c1cc(OCC=NOC2CCCCO2)ncn1Cc1ccc(-c2noc(C(F)(F)F)n2)cc1` (centres unmarked) [Compound 1-42] has a melting point of 103 to 106 °C.
With `O=c1cc(OCC=NOCc2ccccc2)ncn1Cc1ccc(-c2noc(C(F)(F)F)n2)cc1` [Compound 1-44] the melting point was 78 to 80 °C.
Work on `O=c1cc(OCC=NOCC(F)F)ncn1Cc1ccc(-c2noc(C(F)(F)F)n2)cc1` [Compound 1-45] yielded a melting point of 111 to 115 °C.
For `N#CCON=CCOc1cc(=O)n(Cc2ccc(-c3noc(C(F)(F)F)n3)cc2)cn1` [Compound 1-46], the melting point was 131 to 133 °C.
For `Cl.O=c1c2c(ncn1Cc1ccc(-c3noc(C(F)(F)F)n3)cc1)CNCC2` [Compound 1-47], the melting point was 192 to 195 °C.
In the case of `O=c1cc(N2CCOCC2)ncn1Cc1ccc(-c2noc(C(F)(F)F)n2)cc1` [Compound 1-52], the melting point is reported as 235 to 237 °C.
In the case of `CON=C1CN(C(=O)c2ccc(-c3noc(C(F)(F)F)n3)cc2)C1` [Compound 2], the melting point is reported as 162 to 165 °C.
`CCON=C1CN(C(=O)Cc2ccc(-c3noc(C(F)(F)F)n3)cc2)C1` [Compound 5] gave a melting point of 130 to 134 °C.
For `CCON=C1CCN(C(=O)Cc2ccc(-c3noc(C(F)(F)F)n3)cc2)CC1` [Compound 6], the melting point was 86 to 88 °C.
`CON=C1CN(C(=O)Cc2ccc(-c3noc(C(F)(F)F)n3)cc2)C1` [Compound 7] showed a melting point of 172 to 176 °C.
In the case of `CON=C1CCN(C(=O)Cc2ccc(-c3noc(C(F)(F)F)n3)cc2)CC1` [Compound 8], the melting point is reported as 73 to 76 °C.
Work on `O=C(Cc1ccc(-c2noc(C(F)(F)F)n2)cc1)N1CC(=NOCC(F)(F)F)C1` [Compound 9] yielded a melting point of 126 to 129 °C.
With `O=C(Cc1ccc(-c2noc(C(F)(F)F)n2)cc1)N1CCC(=NOCC(F)(F)F)CC1` [Compound 10] the melting point was 84 to 86 °C.
Compound `CCON=C1CCN(C(=O)Cc2cccc(-c3noc(C(F)(F)F)n3)c2)CC1` [Compound 11] has a melting point of 83 to 86 °C.
`CCSCON=C1CN(C(=O)Cc2ccc(-c3noc(C(F)(F)F)n3)cc2)C1` [Compound 12] showed a melting point of 73 to 75 °C.
`O=C(Cc1ccc(-c2noc(C(F)(F)F)n2)cc1)N1CCC(=NOC2CCCCO2)CC1` (centres unmarked) [Compound 15] showed a melting point of 104 to 106 °C.
`O=C(Cc1ccc(-c2noc(C(F)(F)F)n2)cc1)N1CC(=NOC2CCCCO2)C1` (centres unmarked) [Compound 16] gave a melting point of 82 to 83 °C.
`O=C(Cc1ccc(-c2noc(C(F)(F)F)n2)cc1)N1CC(=NOCc2ccccc2)C1` [Compound 17] showed a melting point of 139 to 140 °C.
`COCCON=C1CN(C(=O)Cc2ccc(-c3noc(C(F)(F)F)n3)cc2)C1` [Compound 19] showed a melting point of 114 to 116 °C.
Compound `N#CCON=C1CCN(C(=O)Cc2ccc(-c3noc(C(F)(F)F)n3)cc2)CC1` [Compound 20] has a melting point of 126 to 128 °C.
With `N#CCON=C1CN(C(=O)Cc2ccc(-c3noc(C(F)(F)F)n3)cc2)C1` [Compound 21] the melting point was 125 to 126 °C.
Compound `CC(C)ON=C1CCN(C(=O)Cc2ccc(-c3noc(C(F)(F)F)n3)cc2)CC1` [Compound 22] has a melting point of 96 to 100 °C.
`O=C(Cc1ccc(-c2noc(C(F)(F)F)n2)cc1)N1CCC(=NO)CC1` [Compound 25] showed a melting point of 191 to 192 °C.
For `N#CCCON=C1CCN(C(=O)Cc2ccc(-c3noc(C(F)(F)F)n3)cc2)CC1` [Compound 26], the melting point was 71 to 72 °C.
`CSCCON=C1CCN(C(=O)Cc2ccc(-c3noc(C(F)(F)F)n3)cc2)CC1` [Compound 27] gave a melting point of 68 to 69 °C.
Compound `CCON=C1CN(C(=O)C(=O)c2ccc(-c3noc(C(F)(F)F)n3)cc2)C1` [Compound 30] has a melting point of 139 to 141 °C.
For `CCON=C1CN(C(=O)C(=NOC)c2ccc(-c3noc(C(F)(F)F)n3)cc2)C1` [Compound 31], the melting point was 147 to 149 °C.
Work on `CCON=C1CCN(C(=O)Cc2ccc(-c3noc(C(F)(F)F)n3)cc2)CC1SC` (centres unmarked) [Compound 32] yielded a melting point of 80 to 82 °C.
Work on `CON=C1CCN(C(=O)Cc2ccc(-c3noc(C(F)(F)F)n3)cc2)CC1SC` (centres unmarked) [Compound 33] yielded a melting point of 120 to 121 °C.
`CCON=C1CCN(C(=O)Cc2ccc(-c3noc(C(F)(F)F)n3)cc2)CC1S(C)(=O)=O` (centres unmarked) [Compound 34] gave a melting point of 128 to 130 °C.
`O=C(Cc1ccc(-c2noc(C(F)(F)F)n2)cc1)N1CC(=NOCC(F)F)C1` [Compound 41] showed a melting point of 140 to 141 °C.
For `CCON=C1CN(C(=O)C(SC)c2ccc(-c3noc(C(F)(F)F)n3)cc2)C1` (centres unmarked) [Compound 44], the melting point was 108 to 110 °C.
Work on `CCCON=C1CN(C(=O)C(SCC)c2ccc(-c3noc(C(F)(F)F)n3)cc2)C1` (centres unmarked) [Compound 45] yielded a melting point of 83 to 85 °C.
